From ChEMBL document CHEMBL3763120, “Phenyl Benzenesulfonylhydrazides Exhibit Selective Indoleamine 2,3-Dioxygenase Inhibition with Potent in Vivo Pharmacodynamic Activity and Antitumor Efficacy” (J Med Chem, 2016)
pEC50, pIC50: −log10 of the molar value. The source made the active and inactive calls. No cut-off for these calls is given here.

Tested on: not listed separately
Assay: (§1) Volume of distribution at steady state in Sprague-Dawley rat plasma at 2 mg/kg, iv by LC-MS/MS analysis
Format: ADME, organism-based
Conditions: Sprague-Dawley, plasma, read-out: Vdss

Vd | Structure (SMILES)
13 L/kg | CC1(C)C(=O)Nc2ccc(S(=O)(=O)NNc3ccc(Br)cc3)cc21
1.5 L/kg | CC(=O)Nc1ccc(S(=O)(=O)NNc2ccc(Br)cc2)cc1
1 L/kg | O=C1CCCN1c1ccc(S(=O)(=O)NNc2ccc(Br)cc2)cc1
6 L/kg | O=S(=O)(NNc1ccc(Br)cc1)c1ccc2[nH]c(O)nc2c1

Tested on: Rattus norvegicus
Assay: as §1
Format: ADME, organism-based
Conditions: in vivo

Vdss | Structure (SMILES)
20.8 L/kg | O=C1CCc2cc(S(=O)(=O)NNc3ccc(Br)cc3)ccc2N1

Tested on: not listed separately
Assay: AUC (0 to infinity) in Sprague-Dawley rat plasma at 2 mg/kg, iv by LC-MS/MS analysis
Format: ADME, organism-based
Set-up: dose 2 mg/kg, route intravenous, time infinity
Conditions: not given

AUC(0-inf) | Structure (SMILES)
364 ng·h/mL | CC1(C)C(=O)Nc2ccc(S(=O)(=O)NNc3ccc(Br)cc3)cc21
1740 ng·h/mL | CC(=O)Nc1ccc(S(=O)(=O)NNc2ccc(Br)cc2)cc1
5580 ng·h/mL | O=C1CCCN1c1ccc(S(=O)(=O)NNc2ccc(Br)cc2)cc1
594 ng·h/mL | O=S(=O)(NNc1ccc(Br)cc1)c1ccc2[nH]c(O)nc2c1
1350 ng·h/mL | O=C1CCc2cc(S(=O)(=O)NNc3ccc(Br)cc3)ccc2N1

Tested on: not listed separately
Assay: Oral bioavailability in Sprague-Dawley rat plasma at 10 mg/kg by LC-MS/MS analysis
Format: ADME, organism-based
Conditions: not given

bioavailability | Structure (SMILES)
17% | CC1(C)C(=O)Nc2ccc(S(=O)(=O)NNc3ccc(Br)cc3)cc21
37% | CC(=O)Nc1ccc(S(=O)(=O)NNc2ccc(Br)cc2)cc1
35% | O=C1CCCN1c1ccc(S(=O)(=O)NNc2ccc(Br)cc2)cc1
13% | O=S(=O)(NNc1ccc(Br)cc1)c1ccc2[nH]c(O)nc2c1
11% | O=C1CCc2cc(S(=O)(=O)NNc3ccc(Br)cc3)ccc2N1

Tested on: not listed separately
Assay: Tmax in Sprague-Dawley rat plasma at 10 mg/kg, po by LC-MS/MS analysis
Format: ADME, organism-based
Conditions: not given

Tmax | Structure (SMILES)
1.3 h | CC1(C)C(=O)Nc2ccc(S(=O)(=O)NNc3ccc(Br)cc3)cc21
0.7 h | CC(=O)Nc1ccc(S(=O)(=O)NNc2ccc(Br)cc2)cc1
4 h | O=C1CCCN1c1ccc(S(=O)(=O)NNc2ccc(Br)cc2)cc1
1.3 h | O=S(=O)(NNc1ccc(Br)cc1)c1ccc2[nH]c(O)nc2c1
5.3 h | O=C1CCc2cc(S(=O)(=O)NNc3ccc(Br)cc3)ccc2N1

Tested on: not listed separately
Assay: AUC (0 to infinity) in Sprague-Dawley rat plasma at 10 mg/kg, po by LC-MS/MS analysis
Format: ADME, organism-based
Set-up: dose 10 mg/kg, route oral, time infinity
Conditions: not given

AUC(0-inf) | Structure (SMILES)
304 ng·h/mL | CC1(C)C(=O)Nc2ccc(S(=O)(=O)NNc3ccc(Br)cc3)cc21
3220 ng·h/mL | CC(=O)Nc1ccc(S(=O)(=O)NNc2ccc(Br)cc2)cc1
9730 ng·h/mL | O=C1CCCN1c1ccc(S(=O)(=O)NNc2ccc(Br)cc2)cc1
382 ng·h/mL | O=S(=O)(NNc1ccc(Br)cc1)c1ccc2[nH]c(O)nc2c1
763 ng·h/mL | O=C1CCc2cc(S(=O)(=O)NNc3ccc(Br)cc3)ccc2N1

Tested on: not listed separately
Assay: Half life in Sprague-Dawley rat plasma at 10 mg/kg, po by LC-MS/MS analysis
Format: ADME, organism-based
Conditions: not given

half-life | Structure (SMILES)
4.7 h | CC1(C)C(=O)Nc2ccc(S(=O)(=O)NNc3ccc(Br)cc3)cc21
2.7 h | CC(=O)Nc1ccc(S(=O)(=O)NNc2ccc(Br)cc2)cc1
1.7 h | O=C1CCCN1c1ccc(S(=O)(=O)NNc2ccc(Br)cc2)cc1
3 h | O=S(=O)(NNc1ccc(Br)cc1)c1ccc2[nH]c(O)nc2c1
8.9 h | O=C1CCc2cc(S(=O)(=O)NNc3ccc(Br)cc3)ccc2N1

Molecular target: T1, Indoleamine 2,3-dioxygenase 1 (Homo sapiens, UniProt P14902)
T1 sequence (P14902 whole entry): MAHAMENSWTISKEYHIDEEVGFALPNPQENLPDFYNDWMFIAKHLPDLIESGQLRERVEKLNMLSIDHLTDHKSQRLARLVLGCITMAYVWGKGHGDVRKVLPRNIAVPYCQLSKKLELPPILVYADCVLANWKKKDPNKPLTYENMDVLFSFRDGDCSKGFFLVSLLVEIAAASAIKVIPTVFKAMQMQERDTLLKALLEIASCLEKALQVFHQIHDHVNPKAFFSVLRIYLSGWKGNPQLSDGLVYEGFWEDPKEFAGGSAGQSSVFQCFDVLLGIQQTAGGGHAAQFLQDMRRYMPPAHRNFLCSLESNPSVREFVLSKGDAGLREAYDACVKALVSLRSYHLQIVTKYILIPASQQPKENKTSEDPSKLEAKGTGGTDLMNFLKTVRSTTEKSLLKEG
Assay: Inhibition of human Indoleamine 2,3-dioxygenase using L-tryptophan as substrate by emission fluorescence analysis
Conditions: not given

pIC50 | Structure (SMILES)
< 5.00 | O=C1Nc2ccc(S(=O)(=O)NNc3ccc(Br)cc3)cc2C1=O
6.95 | O=C1CCCc2cc(S(=O)(=O)NNc3ccc(Br)cc3)ccc2N1
7.11 | O=C(CCN1CCOCC1)Nc1ccc(S(=O)(=O)NNc2ccc(Br)cc2)cc1

Further lines, the molecule ahead of its results:

Structure (SMILES) | pIC50
O=c1ccc2cc(S(=O)(=O)NNc3ccc(Br)cc3)ccc2[nH]1 | 7.07
O=C1Nc2ccc(S(=O)(=O)NNc3ccc(Br)cc3)cc2C1(F)F | 7.28
Cn1c(=O)n(C)c2cc(S(=O)(=O)NNc3ccc(Br)cc3)ccc21 | 7.33
CC1(C)C(=O)Nc2ccc(S(=O)(=O)NNc3ccc(Br)cc3)cc21 | 7.16
O=C1CCCN1c1ccc(S(=O)(=O)NNc2ccc(Br)cc2)cc1 | 7.17
O=S(=O)(NNc1ccc(Br)cc1)c1ccc2[nH]c(O)nc2c1 | 7.24
O=C1CCc2cc(S(=O)(=O)NNc3ccc(Br)cc3)ccc2N1 | 7.14
Nc1nc2cc(S(=O)(=O)NNc3ccc(Br)cc3)ccc2[nH]1 | 6.92
CN1C(=O)Cc2cc(S(=O)(=O)NNc3ccc(Br)cc3)ccc21 | 7.12
CC(=O)N1CCc2cc(S(=O)(=O)NNc3ccc(Br)cc3)ccc21 | 7.46

Tested on: B16-F10
Assay: Antitumor activity against mouse B16F10 cells xenografted in mouse at 400 mg/kg bid dosed daily for 2 weeks
Format: functional, organism-based
Conditions: not given

Structure (SMILES) | Activity
CC(=O)Nc1ccc(S(=O)(=O)NNc2ccc(Br)cc2)cc1 | inactive

Tested on: not listed separately
Assay: Drug degradation in Sprague-Dawley rat plasma within 5 mins
Format: ADME, cell-free
Conditions: read-out: Drug degradation

metabolised at 5 min | Structure (SMILES)
80% | O=C(O)c1cccc(S(=O)(=O)NNc2ccc(Br)cc2)c1

Tested on: not listed separately
Assay: Cmax in Sprague-Dawley rat plasma at 10 mg/kg, po by LC-MS/MS analysis
Format: ADME, organism-based
Set-up: dose 10 mg/kg, route oral
Conditions: not given

Cmax | Structure (SMILES)
72 ng/mL | CC1(C)C(=O)Nc2ccc(S(=O)(=O)NNc3ccc(Br)cc3)cc21
1190 ng/mL | CC(=O)Nc1ccc(S(=O)(=O)NNc2ccc(Br)cc2)cc1
2050 ng/mL | O=C1CCCN1c1ccc(S(=O)(=O)NNc2ccc(Br)cc2)cc1
124 ng/mL | O=S(=O)(NNc1ccc(Br)cc1)c1ccc2[nH]c(O)nc2c1
63 ng/mL | O=C1CCc2cc(S(=O)(=O)NNc3ccc(Br)cc3)ccc2N1

Tested on: not listed separately
Assay: Clearance in Sprague-Dawley rat plasma at 2 mg/kg, iv by LC-MS/MS analysis
Format: ADME, organism-based
Conditions: not given

clearance | Structure (SMILES)
93.3 mL/min/kg | CC1(C)C(=O)Nc2ccc(S(=O)(=O)NNc3ccc(Br)cc3)cc21
19.6 mL/min/kg | CC(=O)Nc1ccc(S(=O)(=O)NNc2ccc(Br)cc2)cc1
6.3 mL/min/kg | O=C1CCCN1c1ccc(S(=O)(=O)NNc2ccc(Br)cc2)cc1
57.1 mL/min/kg | O=S(=O)(NNc1ccc(Br)cc1)c1ccc2[nH]c(O)nc2c1

Tested on: not listed separately
Assay: (§2) Half life in Sprague-Dawley rat plasma at 2 mg/kg, iv by LC-MS/MS analysis
Format: ADME, organism-based
Conditions: Sprague-Dawley, plasma

half-life | Structure (SMILES)
2.4 h | CC1(C)C(=O)Nc2ccc(S(=O)(=O)NNc3ccc(Br)cc3)cc21
3.5 h | CC(=O)Nc1ccc(S(=O)(=O)NNc2ccc(Br)cc2)cc1
1.5 h | O=C1CCCN1c1ccc(S(=O)(=O)NNc2ccc(Br)cc2)cc1
0.8 h | O=S(=O)(NNc1ccc(Br)cc1)c1ccc2[nH]c(O)nc2c1

Tested on: Rattus norvegicus
Assay: as §2
Format: ADME, organism-based
Conditions: in vivo

t1/2 | Structure (SMILES)
2.7 h | O=C1CCc2cc(S(=O)(=O)NNc3ccc(Br)cc3)ccc2N1

Molecular target: T1, Indoleamine 2,3-dioxygenase 1
Assay: Inhibition of Indoleamine 2,3-dioxygenase in human HeLa cells in presence of L-tryptophan as substrate after 24 hrs in presence of L-tryptophan
Format: cell-based
Conditions: not given

pEC50 | Structure (SMILES)
6.71 | O=C1CCCc2cc(S(=O)(=O)NNc3ccc(Br)cc3)ccc2N1
6.66 | O=C(CCN1CCOCC1)Nc1ccc(S(=O)(=O)NNc2ccc(Br)cc2)cc1

Continued, molecule first:

Structure (SMILES) | pEC50
O=c1ccc2cc(S(=O)(=O)NNc3ccc(Br)cc3)ccc2[nH]1 | 6.67
O=C1Nc2ccc(S(=O)(=O)NNc3ccc(Br)cc3)cc2C1(F)F | 7.51
Cn1c(=O)n(C)c2cc(S(=O)(=O)NNc3ccc(Br)cc3)ccc21 | 6.87
CC1(C)C(=O)Nc2ccc(S(=O)(=O)NNc3ccc(Br)cc3)cc21 | 7.44
O=C1CCCN1c1ccc(S(=O)(=O)NNc2ccc(Br)cc2)cc1 | 7.05
O=S(=O)(NNc1ccc(Br)cc1)c1ccc2[nH]c(O)nc2c1 | 7.20
O=C1CCc2cc(S(=O)(=O)NNc3ccc(Br)cc3)ccc2N1 | 7.17
Nc1nc2cc(S(=O)(=O)NNc3ccc(Br)cc3)ccc2[nH]1 | 7.16
CN1C(=O)Cc2cc(S(=O)(=O)NNc3ccc(Br)cc3)ccc21 | 6.44
CC(=O)N1CCc2cc(S(=O)(=O)NNc3ccc(Br)cc3)ccc21 | 6.64
